In patent publication US20160060260A1, “BROMODOMAIN INHIBITORS FOR TREATING DISEASE” (Board of Regents, The University of Texas System, priority 2014, published 2016):

target: T1, Recombinant human His-tagged Trim24-PHD-bromodomain (Homo sapiens, UniProt O15164); assay: Trim24 AlphaScreen Assay; assay type: binding; details: 5 nM Trim24 protein, 15 nM biotinylated H3K23ac (1-33aa) peptide
T1 construct: Recombinant human His-tagged Trim24-PHD-bromodomain (produced in-house); made in house
T1 sequence (O15164 824-1006 limits assumed): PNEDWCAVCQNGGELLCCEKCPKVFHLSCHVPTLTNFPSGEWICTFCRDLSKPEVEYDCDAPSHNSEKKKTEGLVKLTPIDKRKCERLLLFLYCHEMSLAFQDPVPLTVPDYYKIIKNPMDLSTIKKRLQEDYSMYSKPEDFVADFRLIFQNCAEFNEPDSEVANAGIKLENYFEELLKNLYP
Protocol: Recombinant human His-tagged Trim24-PHD-bromodomain (produced in-house), biotinylated H3K23ac (1-33aa) peptide (AnaSpec, Inc.), and test compound were added to a 384-well OptiPlate (Perkin Elmer) and incubated at room temperature for one hour. The assay buffer consisted of 50 mM Hepes, pH 7.5, 100 mM NaCl, and 0.12 mM Triton X-100.
Streptavidin donor beads and nickel chelate acceptor beads, both from a Perkin Elmer AlphaScreen Histidine Detection Kit, were then added to the Optiplate to a final concentration of 10 ug/mL each. Following a 2 hour incubation at room temperature, the microplate was read on an Envision Plate Reader (Perkin Elmer). Percent of control (POC) values were calculated from the following formula:
POC=[sample signal-average background signal]/[average maximum signal−average background signal]*100
The average maximum signal was obtained from wells containing all assay components except test compound. The average background signal pertained to wells with all assay components except Trim24 and test compound. IC50 values were calculated using a four-parameter logistic curve fit.

First: CCCOc1cc(C#N)cc(Oc2cc3c(cc2NS(=O)(=O)c2cn(C)cn2)n(C)c(=O)n3C)c1 [Example 108, N-(6-(3-cyano-5-propoxyphenoxy)-1,3-dimethyl-2-oxo-2,3-dihydro-1H-benzo[d]imidazol-5-yl)-1-methyl-1H-imidazole-4-sulfonamide]
Second: Cn1cnc(S(=O)(=O)Nc2cc3c(cc2Oc2cccc(OCC#N)c2)n(C)c(=O)n3C)c1 [Example 76, N-(6-(3-(cyanomethoxy)phenoxy)-1,3-dimethyl-2-oxo-2,3-dihydro-1H-benzo[d]imidazol-5-yl)-1-methyl-1H-imidazole-4-sulfonamide]
The IC50 of the first is lower: 10 to 100 nM for the first, 100 to 1000 nM for the second.

First: COc1cc(OCC(C)C)cc(Oc2cc3c(cc2NS(=O)(=O)c2cn(C)c(C)n2)n(C)c(=O)n3C)c1 [Example 66, N-(6-(3-isobutoxy-5-methoxyphenoxy)-1,3-dimethyl-2-oxo-2,3-dihydro-1H-benzo[d]imidazol-5-yl)-1,2-dimethyl-1H-imidazole-4-sulfonamide]
Second: CCCOc1cccc(Oc2cc3c(cc2NS(=O)(=O)c2cn(C)cn2)n(C)c(=O)n3C)c1C [Example 103, N-(1,3-dimethyl-6-(2-methyl-3-propoxyphenoxy)-2-oxo-2,3-dihydro-1H-benzo[d]imidazol-5-yl)-1-methyl-1H-imidazole-4-sulfonamide]
The IC50 of the first is lower: 10 to 100 nM for the first, > 1000 nM for the second.

`C=CCOc1cccc(Oc2cc3c(cc2NS(=O)(=O)c2ccc(OC)c(NC(C)=O)c2)n(C)c(=O)n3C)c1` [Example 143, N-(5-(N-(6-(3-(allyloxy)phenoxy)-1,3-dimethyl-2-oxo-2,3-dihydro-1H-benzo[d]imidazol-5-yl)sulfamoyl)-2-methoxyphenyl)acetamide] and `Cn1c(=O)n(C)c2cc(Oc3cccc(OCc4ccccc4)c3)c(NS(=O)(=O)c3cccc(F)c3)cc21` [Example 43, N-(6-(3-(benzyloxy)phenoxy)-1,3-dimethyl-2-oxo-2,3-dihydro-1H-benzo[d]imidazol-5-yl)-3-fluorobenzenesulfonamide] fall in the same range of IC50: 100 to 1000 nM for the first, 100 to 1000 nM for the second.

Compared with `CCCOc1cc(OCCCCCCN)cc(Oc2cc3c(cc2NS(=O)(=O)C2CC2)n(C)c(=O)n3C)c1` [Example 218, N-(6-(3-((6-aminohexyl)oxy)-5-propoxyphenoxy)-1,3-dimethyl-2-oxo-2,3-dihydro-1H-benzo[d]imidazol-5-yl)cyclopropanesulfonamide], `CCCOc1cc(OCCCCCCN)cc(Oc2cc3c(cc2NS(=O)(=O)c2cccc(C(=O)O)c2)n(C)c(=O)n3C)c1` [Example 220, 3-(N-(6-(3-((6-aminohexyl)oxy)-5-propoxyphenoxy)-1,3-dimethyl-2-oxo-2,3-dihydro-1H-benzo[d]imidazol-5-yl)sulfamoyl)benzoic acid] is higher in IC50: 10 to 100 nM for the first, 100 to 1000 nM for the second.

`Cn1c(=O)n(C)c2cc(Oc3cccc(OCc4ccccc4)c3)c(NS(=O)(=O)c3ccc(F)cc3)cc21` [Example 15] and `Cn1c(=O)n(C)c2cc(Oc3cccc(OCc4ccccc4)c3)c(NS(C)(=O)=O)cc21` [Example 11] cannot be ordered by IC50: > 1000 nM for the first, > 1000 nM for the second.

Compared with `Cn1c(=O)n(C)c2cc(Oc3cccc(OCC4CC4)c3)c(NS(=O)(=O)c3cccnc3)cc21` [Example 128, N-(6-(3-(cyclopropylmethoxy)phenoxy)-1,3-dimethyl-2-oxo-2,3-dihydro-1H-benzo[d]imidazol-5-yl)pyridine-3-sulfonamide], `CCCOc1cccc(Oc2cc3c(cc2NS(=O)(=O)CCOC)n(C)c(=O)n3C)c1` [Example 85, N-(1,3-dimethyl-2-oxo-6-(3-propoxyphenoxy)-2,3-dihydro-1H-benzo[d]imidazol-5-yl)-2-methoxyethane-1-sulfonamide] is higher in IC50: 10 to 100 nM for the first, 100 to 1000 nM for the second. The first is the more potent here.

`C=CCN(c1cc2c(cc1Oc1cccc(OCCC)c1)n(C)c(=O)n2C)S(=O)(=O)c1cn(CC=C)cn1` [Example 244, N,1-diallyl-N-(1,3-dimethyl-2-oxo-6-(3-propoxyphenoxy)-2,3-dihydro-1H-benzo[d]imidazol-5-yl)-1H-imidazole-4-sulfonamide] gave an IC50 of 100 to 1000 nM.
